{"source": "patent US8445510B2", "about": "“Fused bicyclic kinase inhibitors” (OSI Pharmaceuticals, LLC, priority 2011, dated 2013)", "key": {"MKN45 cells": {"system": "MKN45 cells", "test": "MKN45 cell proliferation assay (CellTiter-Glo)", "format": "cell-based", "conditions": "Homo sapiens, MKN-45, 72 h; MKN45 cell line; 3 days incubation; at least duplicate experiments; read-out: Prolif. IC50"}, "Karpas-299 cells": {"system": "Karpas-299 cells", "test": "Karpas-299 cell proliferation assay (CellTiter-Glo)", "format": "cell-based", "conditions": "Homo sapiens, 72 h; Karpas-299 cell line (NPM-ALK); 3 days incubation; at least duplicate experiments; read-out: Prolif. IC50"}}}
{"smiles": "[2H]C([2H])([2H])Oc1ccc(F)c(Cl)c1[C@@H](C)c1c[nH]c2ncc(-c3cnn([C@H]4CC[C@H](O)CC4)c3C)cc12", "note": "[Example 107, trans-4-(4-{3-[(1S)-1-{2-Chloro-3-fluoro-6-[(^2H3)methyloxy]phenyl}ethyl]-1H-pyrrolo[2,3-b]pyridin-5-yl}-5-methyl-1H-pyrazol-1-yl)cyclohexanol]", "values": [{"measurement": "IC50", "setting": "MKN45 cells", "result": "≤ 50", "unit": "nM"}, {"measurement": "IC50", "setting": "Karpas-299 cells", "result": "50 to 200", "unit": "nM"}]}
{"smiles": "Cc1c(-c2cnc3[nH]cc(C(C#N)c4c(Cl)ccc(F)c4Cl)c3c2)cnn1[C@H]1CC[C@H](O)CC1", "note": "(stereo partly drawn) [Example 108, (2,6-Dichloro-3-fluorophenyl){5-[1-(trans-4-hydroxycyclohexyl)-5-methyl-1H-pyrazol-4-yl]-1H-pyrrolo[2,3-b]pyridin-3-yl}acetonitrile]", "values": [{"measurement": "IC50", "setting": "MKN45 cells", "result": "50 to 200", "unit": "nM"}, {"measurement": "IC50", "setting": "Karpas-299 cells", "result": "200 to 1000", "unit": "nM"}]}
{"smiles": "[2H][C@@](C)(c1c(OC)ccc(F)c1Cl)c1c[nH]c2ncc(-c3cnn([C@H]4CC[C@H](O)CC4)c3C)cc12", "note": "[Example 110, trans-4-(4-{3-[(1S)-1-(2-Chloro-3-fluoro-6-methoxyphenyl)(1-^2H)ethyl]-1H-pyrrolo[2,3-b]pyridin-5-yl}-5-methyl-1H-pyrazol-1-yl)cyclohexanol]", "values": [{"measurement": "IC50", "setting": "MKN45 cells", "result": "≤ 50", "unit": "nM"}, {"measurement": "IC50", "setting": "Karpas-299 cells", "result": "≤ 50", "unit": "nM"}]}
{"smiles": "[2H]C([2H])([2H])[C@H](c1c(OC)ccc(F)c1Cl)c1c[nH]c2ncc(-c3cnn([C@H]4CC[C@H](O)CC4)c3C)cc12", "note": "[Example 111, trans-4-(4-{3-[(1S)-1-(2-Chloro-3-fluoro-6-methoxyphenyl)(2,2,2-^2H3)ethyl]-1H-pyrrolo[2,3-b]pyridin-5-yl}-5-methyl-1H-pyrazol-1-yl)cyclohexanol]", "values": [{"measurement": "IC50", "setting": "MKN45 cells", "result": "≤ 50", "unit": "nM"}, {"measurement": "IC50", "setting": "Karpas-299 cells", "result": "≤ 50", "unit": "nM"}]}
{"smiles": "COc1ccc(F)c(Cl)c1[C@@H](CF)c1c[nH]c2ncc(-c3cnn([C@H]4CC[C@H](O)CC4)c3C)cc12", "note": "[Example 121, trans-4-(4-{3-[(1S)-1-(2-Chloro-3-fluoro-6-methoxyphenyl)-2-fluoroethyl]-1H-pyrrolo[2,3-b]pyridin-5-yl}-5-methyl-1H-pyrazol-1-yl)cyclohexanol]", "values": [{"measurement": "IC50", "setting": "MKN45 cells", "result": "≤ 50", "unit": "nM"}, {"measurement": "IC50", "setting": "Karpas-299 cells", "result": "≤ 50", "unit": "nM"}]}
{"smiles": "Cc1c(-c2cnc3[nH]cc([C@@H](CF)c4c(OC(F)F)ccc(F)c4Cl)c3c2)cnn1[C@H]1CC[C@H](O)CC1", "note": "[Example 123, trans-4-[4-(3-{(1R)-1-[2-chloro-6-(difluoromethoxy)-3-fluorophenyl]-2-fluoroethyl}-1H-pyrrolo[2,3-b]pyridin-5-yl)-5-methyl-1H-pyrazol-1-yl]cyclohexanol]", "values": [{"measurement": "IC50", "setting": "MKN45 cells", "result": "200 to 1000", "unit": "nM"}, {"measurement": "IC50", "setting": "Karpas-299 cells", "result": "50 to 200", "unit": "nM"}]}
{"smiles": "Cc1c(-c2cnc3[nH]cc([C@H](CF)c4c(OC(F)F)ccc(F)c4Cl)c3c2)cnn1[C@H]1CC[C@H](O)CC1", "note": "[Example 124, trans-4-[4-(3-{(1S)-1-[2-chloro-6-(difluoromethoxy)-3-fluorophenyl]-2-fluoroethyl}-1H-pyrrolo[2,3-b]pyridin-5-yl)-5-methyl-1H-pyrazol-1-yl]cyclohexanol]", "values": [{"measurement": "IC50", "setting": "MKN45 cells", "result": "≤ 50", "unit": "nM"}, {"measurement": "IC50", "setting": "Karpas-299 cells", "result": "≤ 50", "unit": "nM"}]}
{"smiles": "C[C@H](c1c(OC(F)F)ccc(F)c1Cl)c1c[nH]c2ncc(-c3cnc(N4CCC(O)CC4)n3C)cc12", "note": "[Example 125, 1-[5-(3-{(1S)-1-[2-Chloro-6-(difluoromethoxy)-3-fluorophenyl]ethyl}-1H-pyrrolo[2,3-b]pyridin-5-yl)-1-methyl-1H-imidazol-2-yl]piperidin-4-ol]", "values": [{"measurement": "IC50", "setting": "MKN45 cells", "result": "≤ 50", "unit": "nM"}, {"measurement": "IC50", "setting": "Karpas-299 cells", "result": "≤ 50", "unit": "nM"}]}
{"smiles": "C[C@H](c1c(OC(F)F)ccc(F)c1Cl)c1c[nH]c2ncc(-c3cnc([C@H]4CC[C@H](O)CC4)n3C)cc12", "note": "[Example 126, trans-4-[5-(3-{(1S)-1-[2-Chloro-6-(difluoromethoxy)-3-fluorophenyl]ethyl}-1H-pyrrolo[2,3-b]pyridin-5-yl)-1-methyl-1H-imidazol-2-yl]cyclohexanol]", "values": [{"measurement": "IC50", "setting": "MKN45 cells", "result": "≤ 50", "unit": "nM"}, {"measurement": "IC50", "setting": "Karpas-299 cells", "result": "≤ 50", "unit": "nM"}]}
